The text below walks through data of patent publication US12529694B2, “Human in vitro cardiotoxicity model” (Brown University, priority 2019, dated 2026).

Like-named read-outs stand apart in the source and are kept apart here.

Data set [1] has as its system rodents. The following applies: greater sensitivity in female rats than male rats; increased with isoproterenol stimulation; cited from earlier work.
Data set [2] concerns hiPSC-CMLP microtissues. From the text:
Cardiomyocyte differentiation. The inventors differentiated cardiomyocytes (CMs) from human pluripotent stem cells; either human embryonic stem cells (hESCs, e.g. line RUES2) or human induced pluripotent stem cells (hiPSCs; Gibco human episomal iPSCs from CD34+ cord blood, ThermoFisher Scientific, NCRM-5 human episomal iPSCs from CD34+ cord blood, NIH Center for Regenerative Medicine, WTC11 GM25256 human episomal iPSCs from dermal fibroblasts, The Gladstone Institutes, UCSF) in high-density monolayer cultures. […] Human pluripotent stem cells were cultured on plates coated with truncated human vitronectin (Life Technologies) in Essential 8 medium (ThermoFisher). […] Medium was changed daily until initiation of differentiation (day 0), when cells were approximately 60-90% confluent. […] C-59 (Tocris) or 1 μM XAV939 (Tocris), all chemical Wnt inhibitors, at day 3. […] Some differentiating cells received 100 ng/ml neuregulin-1β (NRG1) daily on days 5-18 (until use in engineered tissues) and/or in engineered tissues. Some engineered tissues received 100 nM insulin-like growth factor 1 (IGF1) daily and/or 100 ng/ml NRG1 daily in engineered tissues. […] Some experiments used unpurified cells as controls and were matched for duration of culture for experiments. Cells undergoing metabolic-based lactate purification were assessed for density and beating visually, and left in the wells of the high-density monolayer cultures for lactate purification if density was high and beating was uniform across large areas of the wells. Cells not meeting these requirements for density and beating were replated at high density, 5-6×10^6 cells/cm^2 on Matrigel-coated 6 well plates in RPMI+B27 medium after 10-20 days of differentiation. All cells undergoing lactate purification were not fed for 4 days as a starvation period to encourage a switch in metabolism from glycolysis to oxidative phosphorylation in the cardiomyocytes, which are capable of this type of metabolism, while non-cardiomyocytes have a lower ability to switch the metabolic phenotype and therefore die, resulting in more pure populations of cardiomyocytes. […] Lactate purified cells were fed with RPMI+B27 until robust beating returned or appeared. Cardiac purity is assessed by flow cytometry analysis.
Fabrication of microtissue mold hydrogels and 3D microtissue culture. Scaffold-free three-dimensional microtissues (spheroid in shape, also called spheroids and/or organoids) are generated using non-adhesive agarose gels with cylindrical microwells with hemispherical bottoms to guide self-assembly. Sterilized 2% (wt/vol) agarose is pipetted into molds designed for 24-well plates with 800-μm-diameter rounded pegs (Microtissues, Providence, RI, USA). After being cooled to room temperature (˜5 minutes), the agarose gels are separated from the molds and transferred to single wells of 24-well plates. For equilibration, 1 mL medium is added to each well. Hydrogels are equilibrated at least one hour or overnight at 37° C. in a humidified incubator with 5% CO2. […]
Optical mapping and automated action potential duration analysis. […] Fluorescence images were filtered using nonlinear bilateral filter (spatial filter: 5×5 window, temporal filter: 21 point window) to preserve action potential upstrokes from blurring. Typically, four microtissues were recorded simultaneously/scan at this magnification.

The subject of data set [3] is hiPSC-CM microtissues. The following applies: human. The source says:
Fabrication of microtissue mold hydrogels and 3D microtissue culture. Scaffold-free three-dimensional microtissues (spheroid in shape, also called spheroids and/or organoids) are generated using non-adhesive agarose gels with cylindrical microwells with hemispherical bottoms to guide self-assembly. Sterilized 2% (wt/vol) agarose is pipetted into molds designed for 24-well plates with 800-μm-diameter rounded pegs (Microtissues, Providence, RI, USA). After being cooled to room temperature (˜5 minutes), the agarose gels are separated from the molds and transferred to single wells of 24-well plates. For equilibration, 1 mL medium is added to each well. Hydrogels are equilibrated at least one hour or overnight at 37° C. in a humidified incubator with 5% CO2. […] Medium is then added to each well (5 ml), and cells are cultured for 6-8 days with electrical field stimulation with a 1 Hz, 10.0 V, 4.0 ms duration bipolar pulse train for the full three-dimensional culture period (C-Pace EP, IonOptix).
Optical mapping and automated action potential duration analysis. The inventors used an Olympus MVX10 microscope to image 1.2×1.2-mm^2 regions. […] Fluorescence images were filtered using nonlinear bilateral filter (spatial filter: 5×5 window, temporal filter: 21 point window) to preserve action potential upstrokes from blurring. Typically, four microtissues were recorded simultaneously/scan at this magnification. […] The pixels with action potentials were identified from Fast Fourier transformation (FFT) of fluorescence signals. After appropriate thresholding and image segmentation, the region of each microtissue was grouped and the fluorescence signals from the pixels in the same microtissue were average and used for action potential analysis.
Validation and screening of toxicants for arrhythmogenic risk. […] Concentrations are selected to span human exposure levels or blood serum levels and quantify dose-dependent changes over a wide range (with a goal of more than 10,000× change in concentration and at least 4-6 doses). […]

For data set [4], the system named is late ICa. The following applies: cited from earlier work.
Data set [5] relates to INCX. Particulars: cited from earlier work.
The test system of data set [6] is peak ICa. The following applies: cited from earlier work.
The test system of data set [7] is late sodium current (INa,late). The following applies: read-out: IC50, late sodium current (INa,late) block; cited from earlier work.
Data set [8] can be described thus: Clinical exposure of ranolazine (FDA documentation). The format is in vivo, human. The following applies: dose of 1000 mg b.i.d., bracketed conversion.
The conditions of data set [9]: cited from earlier work.
The subject of data set [10] is human cardiac fibroblasts. Briefly: Biochemical myofibroblast activation of human cardiac fibroblasts, αSMA immunofluorescence normalized by vimentin. The format is cell-based. Particulars: 10 ng/ml TGF-β1 for forty-eight hours; passage 4 hCFs. As to the method: The inventors next assessed the ability of human cardiac fibroblasts to be further activated via biochemical stimulation by treating passage 4 human cardiac fibroblasts with 10 ng/ml TGF-β1 for forty-eight hours. Cells were fixed and fluorescently labeled for αSMA and vimentin.

For the molecule `CC(C)(c1ccc(O)cc1)c1ccc(O)cc1` [BPA, bisphenol-A], in data set [1], the concentration promoting arrhythmias is 0.001 µM. In addition, in data set [2], the “APDtri (APD80-APD30)” value was “shorter”; the “concentration that shifts action potential duration measurements” value is “one”; the “excitability, pacing at 0.5 Hz” value was “fails to evoke action potentials”. Further, the “APD30 and APD50 versus APD80” value in [2] (human, 20 min) was “APD30 and APD50 were shortened more than APD80”.

Consider `Cn1c(=O)c2c(ncn2C)n(C)c1=O` [caffeine], for which, in data set [3] (5 mM), the action potential duration was determined as 90.5 ± 22.3 ms.

On to `CC(C)NCC(O)c1ccc(O)c(O)c1` (stereo not drawn) [isoproterenol], for which, in data set [3] (100 nM), the action potential duration turned out to be 120.1±10.5 and the “average reduction of APD80” value was 45 ms.

For orientation: IC50 means the concentration that inhibits the measured activity by half. A word on the Cmax: it is the peak of the concentration-time curve. On to `COc1ccccc1OCC(O)CN1CCN(CC(=O)Nc2c(C)cccc2C)CC1` (stereo not drawn) [ranolazine], for which the IC50 in data set [4] was 50 µM; in data set [5] it was 91 µM; in data set [6] it was 296 µM; in [7], 5.9 µM. Further, the “APD changes over dose-response” value in [2] is on record as “moderate APD changes within a safety criteria of QT prolongation”. In addition, the Cmax is 6 µM in [8] (read-out: mean steady-state Cmax [in blood serum]) and 0.98 to 14.2 µM in [8] (human, serum, read-out: 95% of Cmax values). The “mean steady-state Cmax [in blood serum]” value in data set [9] (dose of 1000 mg b.i.d.) is 2569 ng/mL. Besides, the therapeutic concentration in data set [9] (human, in vivo) was 1 to 10 µM.

With “TGF-β1: growth factor used for biochemical activation of human cardiac fibroblasts to a myofibroblast-like state”, the “increase in normalized αSMA fluorescence compared to control” value in data set [10] is recorded as 1.2 fold.
